Measured values: PubChem BioAssay (NCI)
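The compound was tested at five concentrations on cells cultured in 96-well plates, with a 48-hour exposure period. GI50 marks 50% less growth. At the TGI there is no net growth.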

Tests used:
Assay in all cases: NCI-60 cell line screen, 48 h
786-0 renal = tested on: 786-0 renal
OVCAR-4 ovarian = tested on: OVCAR-4 ovarian
M19-MEL melanoma = tested on: M19-MEL melanoma
SF-268 CNS = tested on: SF-268 CNS
LOX IMVI melanoma = tested on: LOX IMVI melanoma
SF-295 CNS = tested on: SF-295 CNS
SNB-75 CNS = tested on: SNB-75 CNS
HCT-15 colon = tested on: HCT-15 colon
ACHN renal = tested on: ACHN renal
RPMI-8226 leukemia = tested on: RPMI-8226 leukemia
NCI-H460 lung = tested on: NCI-H460 lung
MALME-3M melanoma = tested on: MALME-3M melanoma
RXF 393 renal = tested on: RXF 393 renal
NCI-H522 lung = tested on: NCI-H522 lung
KM12 colon = tested on: KM12 colon
SNB-78 CNS = tested on: SNB-78 CNS
U251 CNS = tested on: U251 CNS
SR leukemia = tested on: SR leukemia
CCRF-CEM leukemia = tested on: CCRF-CEM leukemia
DLD-1 colon = tested on: DLD-1 colon
HOP-92 NSCLC = tested on: HOP-92 NSCLC
OVCAR-3 ovarian = tested on: OVCAR-3 ovarian
NCI-H23 lung = tested on: NCI-H23 lung
SK-OV-3 ovarian = tested on: SK-OV-3 ovarian
DMS 114 small cell lung = tested on: DMS 114 small cell lung
SK-MEL-2 melanoma = tested on: SK-MEL-2 melanoma
LXFL 529 NSCLC = tested on: LXFL 529 NSCLC
SK-MEL-28 melanoma = tested on: SK-MEL-28 melanoma
HCC-2998 colon = tested on: HCC-2998 colon
OVCAR-8 ovarian = tested on: OVCAR-8 ovarian
M14 melanoma = tested on: M14 melanoma
SK-MEL-5 melanoma = tested on: SK-MEL-5 melanoma
XF 498 CNS = tested on: XF 498 CNS
SW-620 colon = tested on: SW-620 colon
EKVX NSCLC = tested on: EKVX NSCLC
UO-31 renal = tested on: UO-31 renal
MOLT-4 leukemia = tested on: MOLT-4 leukemia
NCI-H226 lung = tested on: NCI-H226 lung
UACC-62 melanoma = tested on: UACC-62 melanoma
SN12C renal = tested on: SN12C renal
HL-60(TB) leukemia = tested on: HL-60(TB) leukemia
TK-10 renal = tested on: TK-10 renal
HT29 colon = tested on: HT29 colon
DMS 273 small cell lung = tested on: DMS 273 small cell lung
K-562 leukemia = tested on: K-562 leukemia
A549 NSCLC = tested on: A549 NSCLC
COLO 205 colon = tested on: COLO 205 colon
HOP-62 NSCLC = tested on: HOP-62 NSCLC
UACC-257 melanoma = tested on: UACC-257 melanoma
KM20L2 colon = tested on: KM20L2 colon
SNB-19 CNS = tested on: SNB-19 CNS
HCT-116 colon = tested on: HCT-116 colon
IGROV1 ovarian = tested on: IGROV1 ovarian
HOP-18 NSCLC = tested on: HOP-18 NSCLC
OVCAR-5 ovarian = tested on: OVCAR-5 ovarian
SF-539 CNS = tested on: SF-539 CNS
A498 renal = tested on: A498 renal
CAKI-1 renal = tested on: CAKI-1 renal

In the case of `O=C(CCN1CCCC1)CC(c1ccccc1)c1c(O)c2ccccc2oc1=O` (stereo not drawn), the TGI (786-0 renal) is reported as over 100 µM, the TGI (OVCAR-4 ovarian) is reported as over 100 µM and the TGI (M19-MEL melanoma) is reported as over 100 µM. For the same molecule, the TGI (SF-268 CNS) was over 100 µM, the TGI (LOX IMVI melanoma) was over 100 µM and the TGI (SF-295 CNS) was over 100 µM. For the same molecule, the TGI (SNB-75 CNS) was over 100 µM, the TGI (HCT-15 colon) was over 100 µM and the TGI (ACHN renal) was over 100 µM. It also gave a TGI (RPMI-8226 leukemia) of over 100 µM, a TGI (NCI-H460 lung) of over 100 µM and a TGI (MALME-3M melanoma) of over 100 µM. The TGI (RXF 393 renal) was over 100 µM, the TGI (NCI-H522 lung) was over 100 µM and the TGI (KM12 colon) was over 100 µM. The TGI (SNB-78 CNS) was over 100 µM, the TGI (U251 CNS) was over 100 µM and the TGI (SR leukemia) was over 100 µM. The TGI (CCRF-CEM leukemia) was over 100 µM, the TGI (DLD-1 colon) was over 100 µM and the TGI (HOP-92 NSCLC) was 94.8 µM. The TGI (OVCAR-3 ovarian) was over 100 µM, the TGI (NCI-H23 lung) was over 100 µM and the TGI (SK-OV-3 ovarian) was over 100 µM. It also gave a TGI (DMS 114 small cell lung) of over 100 µM, a TGI (SK-MEL-2 melanoma) of over 100 µM and a TGI (LXFL 529 NSCLC) of over 100 µM. It also gave a TGI (SK-MEL-28 melanoma) of over 100 µM, a TGI (HCC-2998 colon) of over 100 µM and a TGI (OVCAR-8 ovarian) of over 100 µM. The TGI (M14 melanoma) was over 100 µM, the TGI (SK-MEL-5 melanoma) was over 100 µM and the TGI (XF 498 CNS) was over 100 µM. For the same molecule, the TGI (SW-620 colon) was over 100 µM, the TGI (EKVX NSCLC) was over 100 µM and the TGI (UO-31 renal) was over 100 µM. It also gave a TGI (MOLT-4 leukemia) of over 100 µM, a TGI (NCI-H226 lung) of over 100 µM and a TGI (UACC-62 melanoma) of over 100 µM. For the same molecule, the TGI (SN12C renal) was over 100 µM, the TGI (HL-60(TB) leukemia) was over 100 µM and the TGI (TK-10 renal) was over 100 µM. For the same molecule, the TGI (HT29 colon) was over 100 µM, the TGI (DMS 273 small cell lung) was over 100 µM and the TGI (K-562 leukemia) was over 100 µM. It also gave a TGI (A549 NSCLC) of over 100 µM, a TGI (COLO 205 colon) of over 100 µM and a TGI (HOP-62 NSCLC) of over 100 µM. It also gave a TGI (UACC-257 melanoma) of over 100 µM, a TGI (KM20L2 colon) of over 100 µM and a TGI (SNB-19 CNS) of over 100 µM. It also gave a TGI (HCT-116 colon) of over 100 µM and a TGI (IGROV1 ovarian) of over 100 µM.

Molecule `CC(=O)[CH-]C(C)=O.CC(=O)[CH-]C(C)=O.[CH2-]CCCCCCC.[CH2-]CCCCCCC.[Sn+4]` has a GI50 (786-0 renal) of 15.8 µM, a TGI (786-0 renal) of 30.1 µM and a GI50 (OVCAR-4 ovarian) of 22.3 µM. It also gave a TGI (OVCAR-4 ovarian) of 78.6 µM, a GI50 (HOP-18 NSCLC) of over 100 µM and a TGI (HOP-18 NSCLC) of over 100 µM. It also gave a GI50 (SF-268 CNS) of 18.9 µM, a TGI (SF-268 CNS) of 57.9 µM and a GI50 (LOX IMVI melanoma) of 13.8 µM. For the same molecule, the TGI (LOX IMVI melanoma) was 27 µM, the GI50 (SF-295 CNS) was 15.4 µM and the TGI (SF-295 CNS) was 30.6 µM. For the same molecule, the GI50 (SNB-75 CNS) was 14.7 µM, the TGI (SNB-75 CNS) was 78.6 µM and the GI50 (HCT-15 colon) was 23.2 µM. For the same molecule, the TGI (HCT-15 colon) was 56.2 µM, the GI50 (ACHN renal) was 28.3 µM and the TGI (ACHN renal) was 70.4 µM. For the same molecule, the GI50 (RPMI-8226 leukemia) was 18.5 µM, the TGI (RPMI-8226 leukemia) was 40.4 µM and the GI50 (NCI-H460 lung) was 17.3 µM. The TGI (NCI-H460 lung) was 37.8 µM, the GI50 (MALME-3M melanoma) was 17.6 µM and the TGI (MALME-3M melanoma) was 39.5 µM. The GI50 (RXF 393 renal) was 14.6 µM, the TGI (RXF 393 renal) was 32.9 µM and the GI50 (NCI-H522 lung) was 20.3 µM. The TGI (NCI-H522 lung) was 46.2 µM, the GI50 (KM12 colon) was 16.7 µM and the TGI (KM12 colon) was 34.4 µM. For the same molecule, the GI50 (U251 CNS) was 15 µM, the TGI (U251 CNS) was 28.3 µM and the GI50 (SR leukemia) was 39.9 µM. The TGI (SR leukemia) was 62.4 µM, the GI50 (CCRF-CEM leukemia) was 27 µM and the TGI (CCRF-CEM leukemia) was 69 µM. For the same molecule, the GI50 (DLD-1 colon) was 18.8 µM, the TGI (DLD-1 colon) was 45.2 µM and the GI50 (HOP-92 NSCLC) was 18.1 µM. The TGI (HOP-92 NSCLC) was 40.7 µM, the GI50 (OVCAR-3 ovarian) was 15.9 µM and the TGI (OVCAR-3 ovarian) was 33.8 µM. The GI50 (NCI-H23 lung) was 18.7 µM, the TGI (NCI-H23 lung) was 33.6 µM and the GI50 (SK-OV-3 ovarian) was 25.5 µM. For the same molecule, the TGI (SK-OV-3 ovarian) was 67.1 µM, the GI50 (DMS 114 small cell lung) was 16.7 µM and the TGI (DMS 114 small cell lung) was 31.2 µM. It also gave a GI50 (OVCAR-5 ovarian) of 15.5 µM, a TGI (OVCAR-5 ovarian) of 37.7 µM and a GI50 (SK-MEL-2 melanoma) of 14.8 µM. The TGI (SK-MEL-2 melanoma) was 32 µM, the GI50 (LXFL 529 NSCLC) was 16.2 µM and the TGI (LXFL 529 NSCLC) was 30.1 µM. The GI50 (SK-MEL-28 melanoma) was 14.7 µM, the TGI (SK-MEL-28 melanoma) was 28.4 µM and the GI50 (HCC-2998 colon) was 17 µM. The TGI (HCC-2998 colon) was 31.5 µM, the GI50 (OVCAR-8 ovarian) was 16.8 µM and the TGI (OVCAR-8 ovarian) was 32.1 µM. It also gave a GI50 (M14 melanoma) of 18.5 µM, a TGI (M14 melanoma) of 35.5 µM and a GI50 (SK-MEL-5 melanoma) of 17.7 µM. For the same molecule, the TGI (SK-MEL-5 melanoma) was 32 µM, the GI50 (XF 498 CNS) was 11.8 µM and the TGI (XF 498 CNS) was 24.1 µM. The GI50 (SW-620 colon) was 16.4 µM, the TGI (SW-620 colon) was 31.7 µM and the GI50 (EKVX NSCLC) was 14.7 µM. For the same molecule, the TGI (EKVX NSCLC) was 35.4 µM, the GI50 (UO-31 renal) was 17.2 µM and the TGI (UO-31 renal) was 34.8 µM. It also gave a GI50 (MOLT-4 leukemia) of 37.2 µM, a TGI (MOLT-4 leukemia) of 73 µM and a GI50 (SF-539 CNS) of 22.2 µM. It also gave a TGI (SF-539 CNS) of 58.6 µM, a GI50 (NCI-H226 lung) of 26.2 µM and a TGI (NCI-H226 lung) of 52.3 µM. For the same molecule, the GI50 (UACC-62 melanoma) was 15.6 µM, the TGI (UACC-62 melanoma) was 29.4 µM and the GI50 (SN12C renal) was 22.7 µM. The TGI (SN12C renal) was 59.1 µM, the GI50 (HL-60(TB) leukemia) was 21.1 µM and the TGI (HL-60(TB) leukemia) was 81.6 µM. It also gave a GI50 (TK-10 renal) of 23.7 µM, a TGI (TK-10 renal) of 45.2 µM and a GI50 (HT29 colon) of 23.5 µM. For the same molecule, the TGI (HT29 colon) was 59.6 µM, the GI50 (K-562 leukemia) was 20.5 µM and the TGI (K-562 leukemia) was 93.5 µM. It also gave a GI50 (A498 renal) of 23 µM, a TGI (A498 renal) of 46.7 µM and a GI50 (A549 NSCLC) of 45.6 µM. The TGI (A549 NSCLC) was over 100 µM, the GI50 (COLO 205 colon) was 14.7 µM and the TGI (COLO 205 colon) was 28.8 µM. It also gave a GI50 (HOP-62 NSCLC) of 22.4 µM, a TGI (HOP-62 NSCLC) of 40.9 µM and a GI50 (UACC-257 melanoma) of 17.8 µM. The TGI (UACC-257 melanoma) was 34.9 µM, the GI50 (KM20L2 colon) was 25 µM and the TGI (KM20L2 colon) was 57.6 µM. It also gave a GI50 (CAKI-1 renal) of 36.7 µM, a TGI (CAKI-1 renal) of over 100 µM and a GI50 (SNB-19 CNS) of 17.5 µM. For the same molecule, the TGI (SNB-19 CNS) was 35.8 µM, the GI50 (HCT-116 colon) was 14.8 µM and the TGI (HCT-116 colon) was 29.1 µM. It also gave a GI50 (IGROV1 ovarian) of 20.3 µM and a TGI (IGROV1 ovarian) of 49.2 µM.
